Data set [1] is described as follows: Hansen Solubility Parameters (D, P, H) and distance Ra of solvents (b). An excerpt: The oil phase of the emulsion includes the hydrophobic polymer of (a) dissolved in one or more solvents capable of solubilizing the hydrophobic polymer. The one or more solvent may include one or more solvents used to generate or solubilize the hydrophobic polymer, e.g., 2,2,4-trimethyl-1,3-pentanediol-monoisobutyrate. The one or more solvents may be a single solvent or a plurality of solvents.
[formula] • wherein • D1 is 16.8 MPa^0.5, • P1 is 4.8 MPa^0.5, and • H1 is 13.0 MPa^0.5.
In a preferred embodiment, the one or more solvents have a dispersion component (D), a polar component (P), a hydrogen bonding component (H), and a distance (Ra) of less than or equal to 9.9 MPa^0.5 per Hansen Solubility Parameters, wherein the distance (Ra) is defined by formula (I):
[formula] • wherein • D1 is 16.4 MPa^0.5, • P1 is 5.0 MPa^0.5, and • H1 is 11.7 MPa^0.5.
The solvent may be an oil. The term “oil” is intended to mean a non-aqueous compound, non-miscible in water, and liquid at 25° C. and atmospheric pressure (760 mmHg; 1.013×10^5 Pa). […] The solvents may include acetone. The solvents may include oleic acid. The solvents may include an oleic acid containing oil (such as a vegetable oil).

For data set [2] the following is noted: Hansen Solubility Parameters; cited from earlier work.

Read-outs that look alike come from different tables or passages of the source.

Here are results for seven compounds from US20250195393A1, “COSMETIC COMPOSITION COMPRISING SKIN ACTIVE AGENT” (priority 2023, published 2025).

Regarding `CCO` [Ethanol], in data set [1], the “Ra (Allowable Range)” value stood at 7.81 MPa^0.5 and the “Ra (Preferred Range)” value came out at 8.67 MPa^0.5. Moreover, in data set [2], the “D (dispersion component)” value is given as 15.8 MPa^0.5, the “H (hydrogen bonding component)” value is recorded as 19.4 MPa^0.5 and the “P (polar component)” value is 8.8 MPa^0.5.

As to `CCCCCCCCCCCCCC(=O)OC(C)C` [Isopropyl Myristate], in data set [1], the “Ra (Allowable Range)” value amounted to 10.70 MPa^0.5 and the “Ra (Preferred Range)” value amounted to 9.41 MPa^0.5. In data set [2], the “D (dispersion component)” value is recorded as 15.9 MPa^0.5, the “H (hydrogen bonding component)” value is given as 2.8 MPa^0.5 and the “P (polar component)” value was 2.1 MPa^0.5.

Turning to `CCCCCCCCCCC(CO)CCCCCCCC` (centres unmarked) [Octyldodecanol], in data set [1], the “Ra (Allowable Range)” value is listed as 6.33 MPa^0.5 and the “Ra (Preferred Range)” value is 5.17 MPa^0.5. In data set [2], the “D (dispersion component)” value is 16.1 MPa^0.5, the “H (hydrogen bonding component)” value is recorded as 7.4 MPa^0.5 and the “P (polar component)” value is reported as 2.2 MPa^0.5.

As for `CCCCCCCC/C=C\CCCCCCCC(=O)O` [Oleic Acid], in data set [1], the “Ra (Allowable Range)” value came to 7.27 MPa^0.5 and the “Ra (Preferred Range)” value was determined as 5.98 MPa^0.5. In data set [2], the “D (dispersion component)” value is recorded as 16 MPa^0.5, the “H (hydrogen bonding component)” value is 6.2 MPa^0.5 and the “P (polar component)” value is on record as 2.8 MPa^0.5.

For the compound `OCCOc1ccccc1` [Phenoxyethanol], in data set [1], the “Ra (Allowable Range)” value came to 2.55 MPa^0.5 and the “Ra (Preferred Range)” value is reported as 3.88 MPa^0.5.

With `CC(C)O` [Isopropyl Alcohol], in data set [1], the “Ra (Allowable Range)” value was found to be 7.02 MPa^0.5 and the “Ra (Preferred Range)” value is 5.54 MPa^0.5. Further, in data set [2], the “D (dispersion component)” value was 15.8 MPa^0.5, the “H (hydrogen bonding component)” value is 6.4 MPa^0.5 and the “P (polar component)” value is 6.1 MPa^0.5.

Regarding `CC(C)=O` [Acetone], the “Ra (Preferred Range)” value in data set [1] (distance per formula (I) with D1 16.4, P1 5.0, H1 11.7, preferred <= 9.9) is reported as 7.38 MPa^0.5. In addition, the “Ra (Allowable Range)” value in data set [1] (distance per formula (I) with D1 16.8, P1 4.8, H1 13.0, allowable <= 13.4) is on record as 8.61 MPa^0.5. For the same compound, in data set [2], the “D (dispersion component)” value is 15.5 MPa^0.5, the “H (hydrogen bonding component)” value is on record as 7 MPa^0.5 and the “P (polar component)” value is 10.4 MPa^0.5.
